According to patent US10959968B2, “Methods for treating c-Met-dependent cancers” (Board of Supervisors of Louisiana State University and …, priority 2016, dated 2021):

Columns and labels:
[1] = system: DU145 human prostate cancer cells (pMet, pAkt, pErk); experiment: Western blot of HGF-induced signaling in prostate cancer cells; type: cell-based; conditions: 30 min pretreatment, 30 min HGF
Method: FIG. 4. A) Effect of HVS treatment on HGF-induced c-Met activation in human breast cancer cells using Western Blot analysis. Treatment with HVS caused a significant, dose-responsive inhibition of HGF-induced c-Met phosphorylation in MDA-MB-231, MCF-7, and BT-474 mammary tumor cells with no effect on total c-Met levels after treatment for 72 h, as compared to their respective vehicle-treated control groups. The visualization of β-tubulin was used as a loading control. (B) Effect of HVS on HGF-induced c-Met activation and its downstream mitogenic signaling in DU145 human prostate cancer cells, as compared to vehicle-treated control group, using Western Blot analysis. Cells were pre-treated for 30 minutes with either HVS at 0.1, 0.3, 1, and 5 μM or (−)-oleocanthal at 5, 10, and 20 μM doses in serum-free 0.4-media. 33 ng/mL HGF was then added for 30 minutes. Whole cell lysates were collected and assayed by Western Blot. The visualization of α-tubulin was used as a loading control. Representative Western Blots from each experiment are shown, N=3.
DU145 prostate tumor cells were pretreated for 30 minutes with the indicated compounds. Following pretreatment, cells were pulsed for thirty minutes with HGF, cell lysates were prepared and western blot analysis was performed to identify pMet, pAkt, pErk and tubulin.

MDA-MB231 spheroids = experiment: 3D spheroid growth, IncuCyte; type: cell-based, human; conditions: 10 micromolar, results not shown
Method: FIG. 9. (A). MDA-MB231 cells were grown in 10% FBS DMEM. Cells were collected after trypsinization and resuspended in phenol-red free DMEM with 10% FBS. Cells were labeled with CellTracker Red (Life Technologies) for 5 minutes. After labeling cells were washed with PBS and transfer into 96-well Corning 7007 ULA round bottom plates at 1,000 cells/well in 100 μl phenol-red free media with 10% FBS and 5% Matrigel. […] Spheroids were grown at 37° C. and 5% CO2 in IncuCyte ZOOM (Essen Bioscience). Images were acquired every 4 h for a period of 72 h post-treatment. The data were expressed as fold increase in spheroids size at the end of the treatment using the “average red object area in the well” as determined by the IncuCyte software analysis.
MDA-MB231 spheroids were all allowed to form and treated with compounds for up to 72 hours. Images were captured using the Incucyte platform.

DU145 spheroids = experiment: 3D spheroid growth, IncuCyte; type: cell-based, human; conditions: 10 micromolar, 72 hours
Method: FIG. 9B: DU145 cells were grown in 10% FBS DMEM. Cells were collected after trypsinization and resuspended in phenol-red free DMEM with 10% FBS. Cells were labeled with Cell-Tracker Red (Life Technologies) for 5 minutes. After labeling cells were washed with PBS and transfer into 96-well Corning 7007 ULA round bottom plates at 1,000 cells/well in 100 μl phenol-red free media with 10% FBS and 5% Matrigel. […] Spheroids were grown at 37° C. and 5% CO2 in IncuCyte ZOOM (Essen Bioscience). Images were acquired every 4 h for a period of 72 h post-treatment and software analysis was design to identify the red object in the well. The data were expressed as fold increase in spheroids size at the end of the treatment using the “average red object area in the well” as determined by the IncuCyte software analysis. FIG. 9C: Visually representative spheroids that are quantitated in FIG. 9B.
To determine the effectiveness of these compounds under 3D growth conditions which more accurately predict effectiveness of new drugs in humans, DU145 spheroids were formed and allowed to grow for 72 hours. Images were recorded every 4 hours using the Incucyte platform. […] Compounds 9 and 10, at 10 micromolar reduced spheroid growth by about 50 percent (not shown).

Compound | pAkt signaling [1] | pMet induction [1] | effect on spheroid growth (MDA-MB231 spheroids) | reduction of spheroid growth (DU145 spheroids) | HGF-induced (Met dependent) signaling [1]
COc1cc(CCOC(=O)/C=C/c2cc(OC)c(O)c(OC)c2)ccc1N [Compound 9, (E)-4-amino-3-methoxyphenethyl 3-(4-hydroxy-3,5-dimethoxyphenyl)-acrylate] | did attenuate | did not lower | effective | about 50% | 
COc1cc(/C=C/C(=O)OCCc2ccc(N)nc2)cc(OC)c1O [Compound 10, (E)-2-(6-aminopyridin-3-yl)ethyl 3-(4-hydroxy-3,5-dimethoxyphenyl)acrylate] |  |  | effective | about 50% | appeared to increase
